From patent EP1169483B1, “VARIATION IN DRUG RESPONSE RELATED TO POLYMORPHISMS IN BETA2- ADRENERGIC RECEPTOR” (UNIVERSITY OF CINCINNATI, priority 1999, dated 2001)

How the values were obtained:
Ile164 receptor [1] = conditions: cited from earlier work; for binding affinity: competition with [125I]cyp in the presence of GTP, Ile164 receptor
Ile164 receptor [2] = conditions: Ile164 receptor compared to Thr164 receptor; cited from earlier work
human Ile164 receptor = conditions: transgenic mice overexpressing human Ile164 receptor in the heart compared to wild-type receptor; cited from earlier work
Thr164 receptor = conditions: COS-7 cells transiently transfected; salmeterol 10 minutes at 37 °C, perfused with saline 30 min; n = 5, p = 0.02
Description: The exosite binding studies were carried out by methods as described in reference 4. Briefly, COS-7 cells were transiently transfected with constructs consisting of Thr164 or Ile164 cDNAs in the vector pBC12BI as previously described (4). Cells were grown in 35 mm dishes as monolayers. […] The media was removed, and cells perfused with saline at a rate of 20 ml/min for 30 min. Cells were detached by scraping and cell membranes prepared. […] Reactions were run for 2 hrs at 25 °C. Bound radioligand was separated from unbound by vacuum filtration over Whatman GF/C filters, which were counted in a gamma counter at 70% efficiency. Specific binding was defined as total minus non-specific binding, corrected for protein.

SMILES	binding affinity (Ile164 receptor [1])	stimulation of adenylyl cyclase (Ile164 receptor [2])	binding curves (Ile164 receptor [1]; in the absence of GTP, Ile164 compared to Thr164 receptor (Figure 2))	adenylyl cyclase activity in response to agonist (human Ile164 receptor)	salmeterol exosite binding (Thr164 receptor)
CNC[C@H](O)c1ccc(O)c(O)c1 [epinephrine]	small decrease in binding affinity	decreased stimulation	–	–	–
NC[C@H](O)c1ccc(O)c(O)c1 [norepinephrine]	small decrease in binding affinity	–	–	–	–
CC(C)NCC(O)c1ccc(O)c(O)c1 (stereo not shown) [isoproterenol]	small decrease in binding affinity	–	different between the two receptors	lowered activities	–
OCc1cc(C(O)CNCCCCCCOCCCCc2ccccc2)ccc1O (stereo not shown) [salmeterol]	–	–	–	–	49 ± 4%
